# Experimental data: US20250237649A1 (priority 2021, published 2025)
# Read-outs that look alike come from different tables or passages of the source. Residues, ends and D or L forms follow the SMILES beside them. *: point of attachment. Dabcyl = CN(C)c1ccc(N=Nc2ccc(C(=O)*)cc2)cc1; EDANS = O=S(=O)(O)c1cccc2c(NCCN*)cccc12; pNA = O=[N+]([O-])c1ccc(N*)cc1; Cbz = O=C(OCc1ccccc1)*
# How the values were obtained:
# [1] = target: T1, Hip1 (Mycobacterium tuberculosis, UniProt P9WHR3); assay: Km determination of Hip1 substrates (Michaelis-Menten); type: biochemical
# T1 sequence (P9WHR3 31-520): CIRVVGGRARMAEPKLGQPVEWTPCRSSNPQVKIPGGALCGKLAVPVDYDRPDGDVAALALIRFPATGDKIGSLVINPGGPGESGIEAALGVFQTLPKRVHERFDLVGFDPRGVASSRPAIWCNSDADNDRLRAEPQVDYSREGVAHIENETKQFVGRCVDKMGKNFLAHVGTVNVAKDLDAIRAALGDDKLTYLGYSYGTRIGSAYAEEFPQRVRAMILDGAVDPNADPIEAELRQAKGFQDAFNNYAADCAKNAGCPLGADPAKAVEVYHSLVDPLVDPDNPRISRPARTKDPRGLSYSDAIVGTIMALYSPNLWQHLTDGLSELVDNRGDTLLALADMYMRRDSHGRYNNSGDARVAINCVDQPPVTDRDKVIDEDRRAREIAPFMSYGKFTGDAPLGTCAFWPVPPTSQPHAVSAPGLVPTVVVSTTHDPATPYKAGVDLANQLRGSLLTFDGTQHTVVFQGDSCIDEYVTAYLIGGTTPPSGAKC
# [2] = target: T1, Hip1; assay: Inhibition of Hip1 (Ki determination); type: biochemical
# [3] = read-out: Km (fluorescent substrate)
smiles,measurement,setting,value
CC(C)C[C@H](NC(=O)[C@H](CCCCN)NC(=O)[C@H](Cc1ccccc1)NC(=O)OCc1ccccc1)C(=O)Nc1ccc([N+](=O)[O-])cc1 [Cbz-Phe-Lys-Leu-pNa] (Cbz-Phe-Lys-Leu-pNA),Km,"[1]; three independent determinations averaged, read-out: Km (chromogenic substrate)",0.421 µM
"COC(=O)C(=O)[C@H](C[C@@H]1CCNC1=O)NC(=O)[C@H](CCCCN)NC(=O)[C@H](Cc1ccccc1)NC(=O)OCc1ccccc1 [Inhibitor Compound 2, Cbz-Phe-Lys-Glnlac-CO—CO2Me]",Ki,[2],117 ± 15 pM
CC(C)C[C@H](NC(=O)CNC(=O)[C@H](CCCNC(=N)N)NC(=O)[C@H](CCCNC(=N)N)NC(=O)[C@H](C)NC(=O)[C@H](CCC(=O)O)NC(=O)c1ccc(N=Nc2ccc(N(C)C)cc2)cc1)C(=O)N[C@@H](CCC(=O)NCCNc1cccc2c(S(=O)(=O)O)cccc12)C(=O)N[C@@H](CCCNC(=N)N)C(=O)O [UFNG1] (Dabcyl-EARRGLE(EDANS)R-OH),Km,[1]; [3],17.5 µM
"CC(C)C[C@H](NC(=O)CNC(=O)[C@H](CCC(N)=O)NC(=O)[C@H](CCCCN)NC(=O)[C@H](Cc1ccccc1)NC(=O)[C@H](CCC(=O)O)NC(=O)c1ccc(N=Nc2ccc(N(C)C)cc2)cc1)C(=O)N[C@@H](CCC(=O)NCCNc1cccc2c(S(=O)(=O)O)cccc12)C(=O)N[C@@H](CCCNC(=N)N)C(=O)O [UFNG2, Dabcyl-Glu-Phe-Lys-Gln-Gly-Leu-Glu-(EDANS)-Arg] (Dabcyl-EFKQGLE(EDANS)R-OH)",Km,[1]; [3],37.6 µM
